Experimental data taken from patent US20180250284A1, “QUINOLINE DERIVATIVES FOR USE IN TREATING LEUKODYSTROPHY AND TREATMENT METHOD” (GEORG-AUGUST-UNIVERSITÄT GÖTTINGEN STIFTUNG ÖFFENTLICHEN …, priority 2015, published 2018).

Experiments:
[1] = test system: Patients with leukodystrophy; assay: trial of laquinimod in leukodystrophy human patients; type: in vivo; details: capsules orally once daily
Description: A trial is conducted to evaluate the safety, tolerability and clinical effect of laquinimod in leukodystrophy human patients. Patients with leukodystrophy are enrolled. The patient has been affirmatively diagnosed to have leukodystrophy. […] Capsule(s) containing laquinimod and/or matching placebo are administered orally once daily at dosages approved by the study Safety Committee. Patients are randomized into one of the treatment arms in a ratio that allows for reaching an overall target enrollment.

[2] = test system: microglia cells stimulated with 1 μg/ml LPS and 5 mM ATP; assay: IL1β ELISA of supernatants of LPS/ATP stimulated microglia cells; type: cell-based; details: at high concentrations of laquinimod
Description: FIG. 3: Titration of laquinimod to microglia cells stimulated with 1 μg/ml LPS and 5 mM ATP. Microglia cell supernatants were analyzed for IL1β by ELISA.

[3] = test system: multiple sclerosis (MS) patients; details: two phase III trials; cited from earlier work
cuprizone model = details: cited from earlier work
[4] = in vivo; cited from earlier work
[5] = test system: Cnp-Cre Pex5^fl/fl Rag1^−/− mice; assay: balanced beam test (motor coordination / walking ability); type: in vivo; details: 25 mg/kg oral gavage 6 out 7 days/week from age 6 weeks to month 6; vs H2O treated controls; significant from the age of 4 months
Description: Cnp-Cre Pex5^fl/fl Rag1^−/− mice received either H2O (Ctrl, n=18) or laquinimod (25 mg/kg, n=11) at 6 out 7 days/week by oral gavage. Treatment was initiated at the age of 6 weeks. Unpaired t test, **<0.01; ***<0.001. Cnp-Cre Pex5^fl/fl Rag1^−/− mice were generated by crossbreeding of Cnp-Cre Pex5^fl/fl mice with Rag1^−/− mice. Mice of both sexes received 25 mg/kg Laquinimod or water by oral gavage 6 out 7 days/week and treatment was initiated at the age of 6 weeks. Motor coordination was assessed with a balanced beam test. Mice were put on a beam (width 1.5 cm) and allowed to run toward a hiding box. After a training period, the time to pass a distance of 0.6 m was measured (three repeats per time point).

[6] = test system: Cnp-Cre Pex5^fl/fl Rag1^−/− mice; assay: histological and morphological analyses of the corpus callosum at month 6; type: in vivo; details: 25 mg/kg oral; for extent of demyelination / myelin loss in the corpus callosum: luxol fast blue, vs vehicle/water treated mice
Description: FIG. 2: Quantification of axonal damage (APP), microglia/macrophage cell numbers (Mac3), demyelination and adult oligodendrocytes (NogoA) in the corpus callosum (CC) of CNP-Cre Pex^fl/fl RAG1^−/− mice at the age of 6 months. Cnp-Cre Pex5^fl/fl Rag1^−/− mice were generated by crossbreeding of Cnp-Cre Pex5^fl/fl mice with Rag1^−/− mice. Mice of both sexes received 25 mg/kg Laquinimod or water by oral gavage 6 out 7 days/week and treatment was initiated at the age of 6 weeks. Mice were perfused transcardially at month 6 with cold PBS followed by 4% paraformaldehyde (PFA). Brains and spinal cords were post-fixed for 2 days and then paraffin-embedded. Sections between 0.5-1 μm were cut and processed for immunohistochemistry (IHC) according to standard protocols. Demyelination was evaluated on sections stained with luxol fast blue (LFB). For the staining of macrophages the antibody MAC387 (mouse anti-L1 antibody MAC387, GeneTex, 1:150) was used. Axonal density was evaluated on Bielschowsky silver stained sections. That is, in order to identify the mechanisms how laquinimod is beneficial in the CNP-Cre Pex^fl/fl RAG1^−/− mouse model, we analyzed and quantified the extent of demyelination, axonal damage and macrophage and adult oligodendrocyte numbers in immunohistochemically stained sections of the corpus callosum at month 6 in laquinimod and vehicle treated mice. […] The extent of demyelination was diminished and the numbers of preserved adult oligodendrocytes were increased, see FIG. 2.

[7] = test system: Knockout mice (Cnp-Pex5, Cnp1-Cre*PEX5flox/flox, Pex5^flox/flox*Cnp-Cre/+, Nestin-Pex5, NEX-Pex5, GFAP-Pex5^−/−); assay: effect of various doses of laquinimod on Pex5 knockout mice; type: in vivo
Description: Knockout mice of one or more of the following strains are used: Cnp-Pex5, Cnp1-Cre*PEX5flox/flox, Pex5^flox/flox*Cnp-Cre/+, Nestin-Pex5, NEX-Pex5, and GFAP-Pex5^−/−.
The effect of various doses of laquinimod on knockout mice is assessed.

Patients with PBD = assay: trial of laquinimod for PBD in human patients; type: in vivo
Description: A trial is conducted to evaluate the safety, tolerability and clinical effect of laquinimod for PBD in human patients. Patients with PBD are enrolled. The patient has been affirmatively diagnosed to have PBD. […] Capsule(s) containing laquinimod and/or matching placebo are administered orally once daily at dosages approved by the study Safety Committee. Patients are randomized into one of the treatment arms in a ratio that allows for reaching an overall target enrollment.

EAE model = details: cited from earlier work
[8] = age of 6 months, vs vehicle treated mice
[9] = capsules orally once daily, human patients

## CCN(C(=O)c1c(O)c2c(Cl)cccc2n(C)c1=O)c1ccccc1 [laquinimod, 5-chloro-N-ethyl-4-hydroxy-1-methyl-2-oxo-N-phenyl-1,2-dihydroquinoline-3-carboxamide]
[1]
  motor symptoms of leukodystrophy: alleviates or eliminates
  one or more symptoms of leukodystrophy: alleviates or eliminates
[2]
  amount of IL1β in LPS stimulated microglia cell cultures: significantly reduced
[3]
  safety and tolerability profile: favorable
Cuprizone model
  demyelination: reduces
  microglia and astrocyte activation: inhibits
[4]
  oral bioavailability: high
[5]
  walking ability / motor coordination on elevated beam test: significantly better
[6]; age of 6 months
  extent of demyelination / myelin loss in the corpus callosum: less extensive
[6]; age of 6 months, listed as Laquinimod
  extent of demyelination / myelin loss in the corpus callosum: diminished
[6]; [8]
  axonal damage (APP positive axons) in the corpus callosum: significantly reduced
  microglia/macrophage cell numbers (Mac3) in the corpus callosum: significantly reduced
  numbers of preserved adult oligodendrocytes (NogoA) in the corpus callosum: increased
[6]; vs water treated controls
  microglia activation: reduced
  preservation of axons (axonal loss): better preserved
[6]; vs water treated controls, listed as Laquinimod
  microglia activation: less abundant
[7]
  accumulation of lipid droplets and VLCFA, depletion of plasmalogens, impairment of myelin, axonal degeneration, astrogliosis, and/or microgliosis: reduces
  cognitive function: improves
  hindlimb ataxia, kyphosis, hindlimb paresis, forelimb ataxia, tremor, hindlimb paralysis, and/or passiveness: reduces
  motor function: improves
Patients with PBD; [9]
  motor symptoms of PBD: alleviates or eliminates
  one or more symptoms of PBD: alleviates or eliminates
Patients with PBD; humans, Example 3.1
  symptoms of Zellweger Syndrome (ZS): alleviates or eliminates
Patients with PBD; humans, Example 3.2
  symptoms of Neonatal Adrenoleukodystrophy (NALD): alleviates or eliminates
Patients with PBD; humans, Example 3.3
  symptoms of Infantile Refsum Disease (IRD): alleviates or eliminates
EAE model
  axonal injury: reduces
  microglia and astrocyte activation: inhibits
